From a melting point compilation (Tetko et al.; mined from patent text by program, amines drawn as free bases though some values may be those of a salt)

Compound	melting point
O=C(OC(c1ccccc1)c1ccccc1)[C@H](O)CCc1ccccc1	82 to 84 °C
COc1cc(CCN2CCC(NC(=O)c3ccccc3)CC2)cc(OC)c1OC	193 to 194 °C
CC(n1ncnn1)C(O)(c1ccc(Cl)cc1)c1ccc(C(F)(F)F)cc1 (centres undefined)	123 to 125 °C
CCCCCOc1cc2c(cc1/C=C/C=C/C(C)=C/C(=O)O)C(C)(C)CCC2(C)C	162 to 163 °C
C=Cc1cc(CC(=O)O)ccc1OCc1ccc2ccccc2n1	173 °C
CC(C)c1nc(CC(=O)N[C@H](C(=O)N[C@@H](Cc2ccccc2)C[C@H](O)[C@H](Cc2ccccc2)NC(=O)OCc2cncs2)C(C)C)cs1	153 to 155 °C
CCCCOc1ccc2c(c1)C(NS(C)(=O)=O)CC(C)(C)O2 (centres undefined)	123 to 127 °C
COc1cc(N)c(Cl)cc1C(=O)N[C@H]1CCN(Cc2cnccn2)C[C@H]1OC (relative stereo)	204 °C
CC(C)(C)c1ccc(CCC(O)CCC2CCCCCC2)cc1NC(=O)CC1c2ccccc2Oc2ccccc21 (centres undefined)	146 to 147 °C
O=C(O)c1cn(-c2ccc(F)c([N+](=O)[O-])c2)c2nc(Cl)c(F)cc2c1=O	> 270 °C
O=C(Nc1cc2ncc(CN3CCCC3)cc2cc1F)c1ccc(Br)cc1F	149 to 151 °C
CC(C)(C)[N+]([O-])=Cc1ccc(S(C)(=O)=O)o1	138 °C
CNC(=O)CNC(=O)c1ccc(C)c(-n2c(C)cc(OCc3ccccc3CNC(=O)Nc3cc(C(C)(C)C)nn3-c3ccc(O)c(Cl)c3)c(Cl)c2=O)c1	209 to 211 °C
CCN(CC)Cc1nc(-c2ncn3c2[C@@H]2CCN2C(=O)c2c(Br)cccc2-3)no1	206 to 209 °C
COC(=O)C1Cc2sc3c(c2C1)C(c1ccccc1Cl)=NCC(=O)N3 (centres undefined)	178 to 181 °C
Cc1ccc(I)c(CC(=O)N(C)C)c1	47 to 49 °C
CC(C)N(CCC1(c2ccccc2)C(=O)NC(C)N2CCCCC21)C(C)C (centres undefined)	142 to 145 °C
O=C(COc1cc(Cl)c(Cl)cc1Cl)OCNC(=O)Oc1ccccc1Cl	119 °C
CN(C)n1cc(-c2ccccc2)c(=O)c(-c2ccccc2)c1	143 °C
CC(=O)Oc1ccc2cccc(OS(=O)(=O)C(F)(F)F)c2n1	90 °C
NC(=O)c1ccc(OCC(F)(F)F)cc1	177 to 178 °C
CC(=O)N[C@@H]1CCCC[C@H]1Nc1nc(Nc2ccc3c(c2)C(C)(C)CCC(=O)N3)ncc1Cl	227 °C

Compound	melting point
CC(=O)N[C@@H](C)COC1CCN(c2nc3cc(OCC4CCC4)ccc3o2)CC1	109 to 110 °C
CCCCSc1cc(C(=O)O)cc([N+](=O)[O-])c1-c1ccccc1	147 to 148 °C
CC(C)(CO)COc1ccc(N)cc1C#N	194 to 196 °C
Cc1cc(C)c(N2CCCCC2=S)c(Cl)c1	147 to 148 °C
CCOC(=O)c1cnn(C)c1C(=O)Nc1ccn2nc(N(C)CC)nc2c1	167 °C
NC(=O)NCc1cccc2c1C(=O)N(C1CCC(=O)NC1=O)C2=O (centres undefined)	292 to 294 °C
COCc1c(I)cc(Cl)nc1OC	69 to 72 °C
CCS(=O)(=O)Nc1cc(Cc2c[nH]cn2)ccc1Cl	159 to 160 °C
CCc1nc2c(cnn2CC)c(NC2CCOCC2)c1CNC(=O)c1cccc(C(=O)NCc2cc(Cl)cc(-c3cccc(CN4CCN(C)CC4)c3)c2)c1	116 to 118 °C
Cc1nn(C)c2c(Cl)nc(C(C)C)nc12	87 to 89 °C
CN(C)C(=O)Oc1ccc2c(c1)N(Cc1ccccc1)CCC2	104 °C
O=C(Nc1cccc(S(=O)(=O)NC2CC2)c1)c1cnn2c(C(F)(F)F)cc(-c3ccc(Cl)cc3)nc12	257 °C
CCCCC(=O)Nc1c(C)c(C)c2c(c1C)C(c1ccc(C(C)C)cc1)C(C)(C)O2 (centres undefined)	106 to 107 °C
CC(=O)OCC(=O)C1(O)CCC2C3CCC4=CC(=O)C=CC4(C)C3CCC21C (centres undefined)	214 °C
O=C(CO)c1ccc(-c2ccccc2)cc1	130 to 132 °C
NC(=O)c1ccc(Nc2nc(OCC3CCCCC3)c3nc[nH]c3n2)cc1	156 to 158 °C
CC1=C(C)C(Cl)N(c2ccc(Cl)c(Cl)c2)C1=O (centres undefined)	95 to 96 °C
CC(=O)N1CCS(=O)c2ccccc2C1 (centres undefined)	156 to 157 °C
CSc1ccc(C(=CN(C)C)C(C)=O)cc1	89 to 91 °C
Cc1cccc(C)c1N1CCCNC1=S	249 to 251 °C
Cc1noc(NS(=O)(=O)c2ccc(Cl)cc2)c1Br	145 to 150 °C
N#Cc1ccc(S(=O)(=O)N2CCN(C(=O)C3CCN(c4ccncn4)CC3)CC2)cc1	180 to 181 °C

Compound	melting point
NS(=O)(=O)c1nc2ccc(OCC(O)CO)cc2s1 (centres undefined)	183 to 185 °C
COc1c(C)c(OC(=O)c2c(C)c(C)c(OCCCOc3ccc(F)cc3)c(C)c2OC)c(C)c(C)c1C(N)=O	146 to 149 °C
COCCCS(=O)(=O)NC(=O)/C=C/c1ccc(OC(C)C)cc1Oc1ncc(C(F)(F)F)cc1Cl	130 °C
CCOCc1nc2c(N)nc3ccccc3c2n1CCCC(=O)OCC	129 to 131 °C
COc1ncnc2c(Cl)c(NC3=NCCN3)ccc12	238 to 239 °C
COc1ccnc(C(=O)N[C@H]2COC(=O)[C@H](CC3CCCCC3)[C@@H](OC(=O)C(C)C)[C@H](C)OC2=O)c1OC(C)=O	164 to 170 °C
CC(=O)Nc1cccc2c1CCN(C(C)=O)C2	154 to 156 °C
CCCCCCCCCCCCc1cn(C(C(=O)O)c2ccccc2)cn1 (centres undefined)	110 to 118 °C
Brc1cccc(Nc2nc(OCC3CCCCC3)c3[nH]cnc3n2)c1	204 to 207 °C
CC(C)C(OCc1ccc(Cl)cc1)c1cncnc1 (centres undefined)	33 to 35 °C
CNC(=O)c1ccccc1Nc1nc(Nc2ccc3c(c2)COC[C@@H]2CCCN32)ncc1Cl	216 to 218 °C
CN(CCCC(C(N)=O)(c1ccccc1)c1ccccc1)CCc1ccc2c(c1)OCO2	89 to 90 °C
CS(=O)(=O)n1cc(F)c(=O)[nH]c1=O	223 to 224 °C
CC(C)(C)C(=O)C1CCCS1(=O)=O (centres undefined)	53 to 56 °C
CN1C(=O)[C@H](NC(=O)CCc2cccc(C#N)c2)N=C(c2ccccc2)c2ccccc21	110 to 112 °C
O=C(Cc1ccc(CCNS(=O)(=O)c2ccc(Cl)cc2)cc1)Nc1nnn[nH]1	168 to 170 °C
O=C(NCC(C=C1CCCCC1[N+](=O)[O-])=NO)c1cccnc1 (centres undefined)	149 to 151 °C
C=CC(=O)OCCCCCCCCOc1ccc(C(=O)Oc2ccc(C=O)cc2)cc1	73 °C
CC(C=CC=C(C)CO)=CC=CC=C(C)C1OCC(C)(C)CO1	136 to 137 °C
Nc1ccc([C@@H](O)CNC[C@@H]2CCc3cc(S(=O)(=O)Nc4ccc(-n5nnn(CCCC6CCCC6)c5=O)cc4)ccc3O2)cn1	99.3 to 99.7 °C
CN(O)C(=O)NCCCOc1ccc(-c2ccccc2)cc1	161 to 162 °C
CCOC(=O)C1=C(C)NC(=S)N(C(=O)OCC)C1c1cccc2nonc12 (centres undefined)	144 to 146 °C

Other lines, results leading:

melting point	Compound
198 to 200 °C	COc1ccc(C(=O)Nc2ccccc2)cc1NS(=O)(=O)c1ccc(F)cc1F
230 to 232 °C	O=C(O)Cc1cccc2c(-c3ccc(Br)cc3)nccc12
147 to 152 °C	CN(c1ccccc1)c1nc(N)nc2nc[nH]c12
209 to 213 °C	CCOc1ccc(-n2c(-c3ccc(SC)cc3)nc(SC)c(C#N)c2=O)cc1
128 to 130 °C	COC(=O)c1ccc(OCCCN2CCN(c3ccc(Cl)nn3)CC2)cc1
120 °C	COc1ccc(N2CCN(CCn3c(=NC(=O)C(F)(F)F)sc4cc(C(F)(F)F)ccc43)CC2)cc1
162 °C	COc1ccccc1CNc1ccc2c(CNC(=O)c3ccc(F)cc3)cccc2n1
210 to 212 °C	CCOC(=O)c1cc(=O)c2ccccc2[nH]1
198 to 200 °C	CCCCC1(CCCC)N[C@@H](c2nc(-c3ccccc3)c[nH]2)Cc2c1sc1ccccc21
206 to 208 °C	COC(=O)c1ccc(I)cc1Nc1ccccc1C(=O)O
216 to 217 °C	COc1ccc2nc(-c3ccc([N+](=O)[O-])cc3)sc2c1
117 to 118 °C	Cc1sc(-c2ccccc2)nc1COc1ccc(CCC[C@@H](O)C(=O)O)cc1
218 to 220 °C	OC1CCCc2c(-c3ccc4nc(-c5ccc(Cl)cc5)cn4c3)cccc21 (centres undefined)
171 to 174 °C	Nc1ccc(Oc2cccc(Oc3ccc(N)c(O)c3)c2)cc1O
220 to 221 °C	CC(C)(C)c1cc(C(=O)Nc2ccc(N)cc2)cc(C(C)(C)C)c1O
51 to 52 °C	CC(=O)COc1ccc(Cc2ccccc2)cc1
146 to 149 °C	Cc1nc(N2CCN(Cc3ccc(F)cc3)C2=O)sc1C(=O)NCc1ccncc1

melting point	Compound
168 to 201 °C	OC1CSC(Oc2cccc(-c3ccc(F)cn3)c2)C(O)C1O (centres undefined)
111 °C	COc1ccc(C=CC(=O)c2c(O)cc(OC)cc2OC)cc1
212 to 214 °C	COc1ccc2c(c1)Cc1c(-c3cccs3)n[nH]c1-2
187 to 189 °C	CCCc1[nH]nc2c1C(=O)c1c(NC(N)=O)cccc1-2
96 to 98 °C	Cc1ccc(-c2nc(Oc3ccccc3)nc(-c3ccc(C)cc3C)n2)c(C)c1
223 to 228 °C	O=C1C(=O)c2ccc(-c3ccncc3)cc2C2=C1SCC1(CCNCC1)O2
178 to 179 °C	CC#CC1(C2CC2)OC(=O)Nc2ccc(-c3cccc(Cl)c3)cc21 (centres undefined)
215 °C	Nc1c(Nc2cccc3cnccc23)c(=O)c1=O
276 °C	Cc1ccccc1C1C(C#N)=C(c2cccs2)Nc2n[nH]cc21 (centres undefined)
113 to 114 °C	COc1ccc2oc(CC(=O)O)c(C)c2c1
169 to 171 °C	CCCCc1oc2ccccc2c1-c1ncc(-c2ccc3cc(OC)ccc3c2)o1
222 to 223 °C	CC(=O)CNC(=O)c1cc2c(nc(C)n2C)c2c1CCC1(Cc3ccccc3C1)N2
194 to 195 °C	CC(C)n1nc(-c2sc(Nc3ccccn3)nc2-c2ccccc2)ccc1=O
100 °C	N#Cc1ccc(OCc2ccccc2)cc1OCc1ccccc1
89 to 92 °C	C=CCOc1ccc(-c2ccc(C(=O)OCC)cc2)cc1
225 to 230 °C	O=C(Nc1ccc(C(=O)N2Cc3ccccc3Cc3ccccc32)cc1)c1cc(Cl)cc(Cl)c1Cl
